Measurements taken from ChEMBL document CHEMBL1201862, “PubChem BioAssay data set” (2004).
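Protocol summary: plate cells (96-well), add compound at 5 concentrations, incubate 48 h, interpolate endpoints linearly. GI50 = concentration required for 50% inhibition of growth.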 Activity calls are given as the source filed them. No stated cut-off is given here; in the data, active = GI50 up to about 1.1 µM and inactive = higher.

Tests used:
Assay in all cases: NCI anticancer screen, dose series, 48 h
[1] = test system: CCRF-CEM
[2] = test system: SW-620
[3] = test system: OVCAR-8
[4] = test system: Malme-3M
[5] = test system: NCI-H522
[6] = test system: NCI-H23
[7] = test system: SK-MEL-28
[8] = test system: Hs-578T
[9] = test system: KM12
[10] = test system: HOP-92
[11] = test system: HOP-62
[12] = test system: RPMI-8226
[13] = test system: HCT-15
[14] = test system: UACC-62
[15] = test system: DU-145
[16] = test system: PC-3
[17] = test system: BT-549
[18] = test system: NCI-H226
[19] = test system: UACC-257

Row | SMILES | GI50 [1] | GI50 [2] | GI50 [3] | GI50 [4] | GI50 [5] | GI50 [6] | GI50 [7] | GI50 [8] | GI50 [9] | GI50 [10] | GI50 [11] | GI50 [12] | GI50 [13] [µM] | GI50 [14] | GI50 [15] | GI50 [16] | GI50 [17] | GI50 [18] | GI50 [19]
1 | CC(C)(C)c1ccc(O)c(C[N+](C)(C)C)c1 | > 100 µM (inactive) | > 100 µM (inactive) | > 100 µM (inactive) | > 100 µM (inactive) | 34.3 µM (inactive) | > 100 µM (inactive) | > 100 µM (inactive) | > 100 µM (inactive) | > 100 µM (inactive) | > 100 µM (inactive) | > 100 µM (inactive) | 63.2 µM (inactive) | > 100 | > 100 µM (inactive) | > 100 µM (inactive) | > 100 µM (inactive) | > 100 µM (inactive) | – | –
2 | CC1(Cc2cc3c(cc2C2(c4ccc([N+](=O)[O-])cc4)OCCO2)OCO3)OCCO1 | 49.3 µM (inactive) | > 100 µM (inactive) | 59.2 µM (inactive) | > 100 µM (inactive) | 24.7 µM (inactive) | 55.2 µM (inactive) | > 100 µM (inactive) | 71.1 µM (inactive) | 72.3 µM (inactive) | – | > 100 µM (inactive) | 27.3 µM (inactive) | 51.1 | 36 µM (inactive) | > 100 µM (inactive) | 47.2 µM (inactive) | 29.6 µM (inactive) | 45 µM (inactive) | 90.4 µM (inactive)
3 | O=C(Nc1ccccc1C(=O)NCc1ccccc1)/C(=C/c1ccccc1)NC(=O)c1ccccc1 | > 100 µM (inactive) | > 100 µM (inactive) | > 100 µM (inactive) | – | > 100 µM (inactive) | > 100 µM (inactive) | > 100 µM (inactive) | 63.1 µM (inactive) | > 100 µM (inactive) | > 100 µM (inactive) | > 100 µM (inactive) | > 100 µM (inactive) | > 100 | > 100 µM (inactive) | > 100 µM (inactive) | > 100 µM (inactive) | > 100 µM (inactive) | > 100 µM (inactive) | > 100 µM (inactive)
4 | O=C(c1ccccc1)n1[nH]c(=O)n(-c2ccc(Cl)cc2)c1=O | > 100 µM (inactive) | > 100 µM (inactive) | > 100 µM (inactive) | > 100 µM (inactive) | – | > 100 µM (inactive) | > 100 µM (inactive) | > 100 µM (inactive) | > 100 µM (inactive) | – | > 100 µM (inactive) | > 100 µM (inactive) | > 100 | > 100 µM (inactive) | > 100 µM (inactive) | > 100 µM (inactive) | > 100 µM (inactive) | > 100 µM (inactive) | > 100 µM (inactive)
5 | COc1ccccc1Cn1c2c(c3cc(O)ccc31)C(=O)c1ccccc1C2=O | 37.5 µM (inactive) | 79.4 µM (inactive) | 11.7 µM (inactive) | > 100 µM (inactive) | – | 20 µM (inactive) | 76.4 µM (inactive) | 36.6 µM (inactive) | 70.6 µM (inactive) | – | 16.1 µM (inactive) | 15.3 µM (inactive) | 90.2 | 17 µM (inactive) | 39.4 µM (inactive) | 8.49 µM (inactive) | > 100 µM (inactive) | 21.6 µM (inactive) | > 100 µM (inactive)
6 | CC(=O)c1cccc(NC(=O)/C(=N\NC(=S)NN)C2C(=O)Nc3ccccc3[S+]2[O-])c1 (centres undefined) | > 100 µM (inactive) | > 100 µM (inactive) | > 100 µM (inactive) | > 100 µM (inactive) | > 100 µM (inactive) | > 100 µM (inactive) | > 100 µM (inactive) | > 100 µM (inactive) | > 100 µM (inactive) | 83.8 µM (inactive) | > 100 µM (inactive) | > 100 µM (inactive) | – | > 100 µM (inactive) | – | > 100 µM (inactive) | > 100 µM (inactive) | > 100 µM (inactive) | > 100 µM (inactive)
7 | CC(=O)CCC1(C(=O)OCC(C)C)CCCC1=O (centres undefined) | > 100 µM (inactive) | > 100 µM (inactive) | > 100 µM (inactive) | > 100 µM (inactive) | > 100 µM (inactive) | > 100 µM (inactive) | > 100 µM (inactive) | > 100 µM (inactive) | > 100 µM (inactive) | 90.6 µM (inactive) | > 100 µM (inactive) | – | > 100 | > 100 µM (inactive) | > 100 µM (inactive) | > 100 µM (inactive) | > 100 µM (inactive) | > 100 µM (inactive) | > 100 µM (inactive)
8 | CC(=O)OCC1OC(n2c(-c3ccccc3)c(/N=N/c3ccccc3)c(C)c(C#N)c2=S)C(OC(C)=O)C(OC(C)=O)C1OC(C)=O (centres undefined) | > 100 µM (inactive) | > 100 µM (inactive) | – | > 100 µM (inactive) | – | > 100 µM (inactive) | > 100 µM (inactive) | > 100 µM (inactive) | > 100 µM (inactive) | 28.4 µM (inactive) | > 100 µM (inactive) | > 100 µM (inactive) | > 100 | > 100 µM (inactive) | > 100 µM (inactive) | > 100 µM (inactive) | > 100 µM (inactive) | – | 12.3 µM (inactive)
9 | Cc1cc(Cl)ccc1NC(=O)/C(Cl)=C(/Cl)C(=O)O | 17.3 µM (inactive) | 21 µM (inactive) | 17.7 µM (inactive) | – | 15.4 µM (inactive) | 29.3 µM (inactive) | 22.1 µM (inactive) | 26.4 µM (inactive) | 31 µM (inactive) | 22.1 µM (inactive) | 22.2 µM (inactive) | 24 µM (inactive) | 18.7 | 21.5 µM (inactive) | 23.9 µM (inactive) | 21.4 µM (inactive) | 19.1 µM (inactive) | – | 19.7 µM (inactive)
10 | CCOC1Oc2ccccc2-c2nc(N)ncc21 (centres undefined) | 36.8 µM (inactive) | 46.3 µM (inactive) | 61.9 µM (inactive) | – | 23.4 µM (inactive) | > 100 µM (inactive) | – | 29.2 µM (inactive) | 39.4 µM (inactive) | 69 µM (inactive) | – | 40 µM (inactive) | 14 | 29.1 µM (inactive) | 68.4 µM (inactive) | 41.5 µM (inactive) | 31.3 µM (inactive) | 61.9 µM (inactive) | 55.2 µM (inactive)
11 | CC1C2CC(CC(=O)N2)C1(C)C (centres undefined) | > 100 µM (inactive) | > 100 µM (inactive) | > 100 µM (inactive) | > 100 µM (inactive) | > 100 µM (inactive) | > 100 µM (inactive) | > 100 µM (inactive) | > 100 µM (inactive) | > 100 µM (inactive) | > 100 µM (inactive) | > 100 µM (inactive) | – | – | > 100 µM (inactive) | > 100 µM (inactive) | > 100 µM (inactive) | > 100 µM (inactive) | > 100 µM (inactive) | > 100 µM (inactive)
12 | O=C1C=Cc2cscc21 | 22.6 µM (inactive) | 33.3 µM (inactive) | 32.6 µM (inactive) | 27 µM (inactive) | 19.6 µM (inactive) | 21.2 µM (inactive) | 69.8 µM (inactive) | > 100 µM (inactive) | 71.4 µM (inactive) | > 100 µM (inactive) | > 100 µM (inactive) | 20.4 µM (inactive) | 22.7 | > 100 µM (inactive) | 34.3 µM (inactive) | 42 µM (inactive) | 53.7 µM (inactive) | – | > 100 µM (inactive)
13 | NNC(=O)c1nnn(N)c1S | 66.1 µM (inactive) | > 100 µM (inactive) | > 100 µM (inactive) | > 100 µM (inactive) | > 100 µM (inactive) | > 100 µM (inactive) | > 100 µM (inactive) | > 100 µM (inactive) | 13.5 µM (inactive) | – | > 100 µM (inactive) | > 100 µM (inactive) | > 100 | > 100 µM (inactive) | > 100 µM (inactive) | > 100 µM (inactive) | > 100 µM (inactive) | > 100 µM (inactive) | > 100 µM (inactive)
14 | CCN(CC)c1ccc2cc(C(=O)Nc3ccccc3)c(=N)oc2c1 | > 100 µM (inactive) | > 100 µM (inactive) | > 100 µM (inactive) | > 100 µM (inactive) | – | – | > 100 µM (inactive) | > 100 µM (inactive) | > 100 µM (inactive) | > 100 µM (inactive) | > 100 µM (inactive) | > 100 µM (inactive) | > 100 | > 100 µM (inactive) | > 100 µM (inactive) | > 100 µM (inactive) | > 100 µM (inactive) | > 100 µM (inactive) | > 100 µM (inactive)
15 | COc1cc([N+](=O)[O-])c(OC)c2c(Nc3ccc(S(=O)(=O)O)c4cc(S(=O)(=O)O)cc(S(=O)(=O)O)c34)cc(C)nc12 | > 100 µM (inactive) | > 100 µM (inactive) | > 100 µM (inactive) | > 100 µM (inactive) | > 100 µM (inactive) | > 100 µM (inactive) | > 100 µM (inactive) | > 100 µM (inactive) | > 100 µM (inactive) | – | > 100 µM (inactive) | – | – | > 100 µM (inactive) | > 100 µM (inactive) | > 100 µM (inactive) | > 100 µM (inactive) | > 100 µM (inactive) | > 100 µM (inactive)
16 | O=C(O)C1[C@@H](C(=O)O)C1(Br)CBr (some centres undefined) | – | > 100 µM (inactive) | > 100 µM (inactive) | – | > 100 µM (inactive) | > 100 µM (inactive) | > 100 µM (inactive) | > 100 µM (inactive) | > 100 µM (inactive) | > 100 µM (inactive) | > 100 µM (inactive) | > 100 µM (inactive) | > 100 | > 100 µM (inactive) | > 100 µM (inactive) | > 100 µM (inactive) | > 100 µM (inactive) | > 100 µM (inactive) | > 100 µM (inactive)
